Source: paper PMC12064818, “A general assay platform to study protein pharmacology using ligand-dependent structural dynamics” (Nature Communications, 2025)
Like-named read-outs stand apart in the source and are kept apart here.

Key:
[1] = biological target: T1, NLuc (Oplophorus gracilirostris, UniProt Q9GV45, A31E/A60N/A81I/F95D/I117V/K70R/L54V/L99Q/M102K/N193R/P142E/Q151K/Q38R/Q45L/V71I/Y165I); type: biochemical; conditions: - ATP
T1 construct: His tag (inferred from IMAC purification); made in house; host or cells: E. coli
How it was run: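 Luminescence was read 10 min after Nano-Glo reagent addition. Enzyme was 1 nM NLuc in PBS/0.05% IGEPAL buffer, with or without ATP.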

[2] = biological target: T2, FLuc-C-HiBiT (Photinus pyralis, UniProt P08659); assay: biochemical; conditions: enzyme activity, 10 uM ATP; read-out: IC50 or SDR50 (mM) / FLuc E
T2 construct: firefly luciferase with C-terminal HiBiT tag, E. coli expressed

[3] = biological target: FLuc-C-HiBiT (firefly luciferase) (Photinus pyralis, UniProt P08659, form not given/L550V); assay: SDR assay, FLuc-C-HiBiT; conditions: for % Activity (max response, + ATP) / % Activity (max response, - ATP): SDR max. response, clade S
[4] = biological target: FLuc-C-NLuc (firefly luciferase) (Photinus pyralis, UniProt P08659, form not given/L550V); assay: SDR assay, FLuc-C-NLuc; conditions: - ATP
[5] = biological target: P. pyralis FLuc (Photinus pyralis, UniProt P08659); assay: FLuc enzymatic luminescence assay, P. pyralis FLuc; type: biochemical; conditions: FLuc enzymatic assay; for IC50: read-out: IC50 or SDR50 (mM) FLuc E
How it was run: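 Runs with and without 10 µM ATP: compounds were pre-incubated with FLuc (1–10 nM, PBS pH 7.4) at ambient temperature, light-protected, for 30–60 min. Luminescence was imaged 5 min after adding 10 µM D-luciferin (final). Inhibition was scaled between DMSO neutral and no-enzyme controls.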

T1 sequence (Q9GV45 other isoform, or with tags, fused parts or gaps with the stated changes): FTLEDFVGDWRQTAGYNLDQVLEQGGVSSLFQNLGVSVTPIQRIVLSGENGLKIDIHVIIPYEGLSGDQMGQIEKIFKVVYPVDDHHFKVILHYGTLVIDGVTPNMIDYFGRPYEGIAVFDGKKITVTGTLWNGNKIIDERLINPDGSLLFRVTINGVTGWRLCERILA
Sequence of FLuc-C-NLuc (firefly luciferase) (P08659 2-550 L550V, form open): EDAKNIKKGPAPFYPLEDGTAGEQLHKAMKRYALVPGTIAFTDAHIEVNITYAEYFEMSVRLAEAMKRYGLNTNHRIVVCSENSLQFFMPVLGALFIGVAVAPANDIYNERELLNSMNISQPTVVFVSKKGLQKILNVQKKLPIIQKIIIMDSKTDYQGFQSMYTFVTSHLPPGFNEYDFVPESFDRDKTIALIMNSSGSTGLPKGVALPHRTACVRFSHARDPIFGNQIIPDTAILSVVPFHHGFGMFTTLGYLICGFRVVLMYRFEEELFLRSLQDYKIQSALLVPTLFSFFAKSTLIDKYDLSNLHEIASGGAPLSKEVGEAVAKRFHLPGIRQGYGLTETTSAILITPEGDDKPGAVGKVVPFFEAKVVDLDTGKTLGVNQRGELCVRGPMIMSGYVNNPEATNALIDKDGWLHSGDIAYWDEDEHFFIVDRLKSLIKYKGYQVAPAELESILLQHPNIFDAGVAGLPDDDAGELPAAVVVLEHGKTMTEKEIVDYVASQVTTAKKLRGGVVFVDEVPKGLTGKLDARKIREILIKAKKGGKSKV
Sequence of FLuc-C-HiBiT (firefly luciferase) (P08659 2-550 L550V, form open): as above
T2 sequence (P08659 whole entry, looked up): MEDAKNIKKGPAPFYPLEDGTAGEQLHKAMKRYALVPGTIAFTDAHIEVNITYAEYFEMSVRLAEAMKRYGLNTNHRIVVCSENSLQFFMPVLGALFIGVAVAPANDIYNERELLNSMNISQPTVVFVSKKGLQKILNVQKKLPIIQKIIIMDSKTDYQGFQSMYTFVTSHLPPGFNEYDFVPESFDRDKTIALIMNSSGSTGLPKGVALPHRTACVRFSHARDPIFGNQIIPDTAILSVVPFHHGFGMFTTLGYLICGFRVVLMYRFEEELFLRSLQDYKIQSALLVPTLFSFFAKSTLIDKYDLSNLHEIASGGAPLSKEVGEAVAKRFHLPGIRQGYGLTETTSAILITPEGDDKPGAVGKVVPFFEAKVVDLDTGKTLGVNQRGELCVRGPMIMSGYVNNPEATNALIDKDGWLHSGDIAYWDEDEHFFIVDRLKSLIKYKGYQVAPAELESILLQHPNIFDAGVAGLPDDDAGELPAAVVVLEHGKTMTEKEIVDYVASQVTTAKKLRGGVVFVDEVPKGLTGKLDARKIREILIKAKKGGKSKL
Sequence of P. pyralis FLuc (P08659 whole entry): as the sequence (P08659 whole entry, looked up) above

Row | SMILES | Efficacy (%) NLuc (- ATP) [1] [%] | IC50 [2] [mM] | % Activity (max response, + ATP) [3] [%] | % Activity (max response, - ATP) ([3]; - ATP) [%] | Efficacy (%) FLuc-C-NLuc SDR (-ATP) [4] [%] | Efficacy (%) FLuc E ([5]; Clade S follow-up) [%] | pIC50 or pSDR50 FLuc E ([5]; Clade S follow-up) | IC50 ([5]; Clade S follow-up) [mM] | pSDR50 (clade S) ([3]; - ATP, dihydro-imidazo-oxazine (clade S)) | pIC50 or pSDR50 FLuc E [5] | IC50 [5] [mM]
1 | COc1ccc(NC(=O)C2CCN(C(=O)c3ncn4c3COC(c3ccccc3)C4)CC2)cc1 (stereo not shown) [NCGC00449910-01] | 0.00 | 0.00785 | 319.33 | 0.00 | 0.00 | -79.86 | 5.06 | 0.0088 | – | – | –
2 | O=C(Nc1ccc(F)c(Cl)c1)C1CCN(C(=O)c2ncn3c2COC(c2ccccc2)C3)CC1 (stereo not shown) [NCGC00449918-01] | 0.00 | 0.000989 | 238.83 | 49.33 | 0.00 | -99.81 | 6.16 | 0.0007 | 4.95 | – | –
3 | COc1ccc(NC(=O)C2CCN(C(=O)c3ncn4c3COC(c3ccccc3)C4)CC2)cc1OC (stereo not shown) [NCGC00449911-01] | 11.18 | 0.00351 | 240.56 | 15.50 | 0.00 | -91.83 | 5.51 | 0.00312 | – | – | –
4 | CCOc1ccccc1CNC(=O)C1CCN(C(=O)c2ncn3c2COC(c2ccccc2)C3)CC1 (stereo not shown) [NCGC00449779-01] | 0.00 | 0.00313 | 223.68 | 0.00 | 0.00 | -109.28 | – | – | – | 5.21 | 0.00623
5 | O=C(NCc1cc(F)ccc1F)C1CCN(C(=O)c2ncn3c2COC(c2ccccc2)C3)CC1 (stereo not shown) [NCGC00449804-01] | 0.00 | 0.00313 | 321.30 | 16.31 | 0.00 | -84.67 | – | – | – | 5.41 | 0.00393
6 | CC1CCC(NC(=O)C2CCN(C(=O)c3ncn4c3COC(c3ccccc3)C4)CC2)CC1 (stereo not shown) [NCGC00449768-01] | 0.00 | 0.00248 | 387.83 | 0.00 | 0.00 | -93.28 | – | – | – | 5.71 | 0.00197
7 | Cc1ccc(NC(=O)C2CCN(C(=O)c3ncn4c3COC(c3ccccc3)C4)CC2)cc1 (stereo not shown) [NCGC00449903-01] | 0.00 | 0.00176 | 343.11 | 0.00 | 0.00 | -93.84 | 5.61 | 0.00248 | – | – | –
8 | COc1ccccc1CNC(=O)C1CCN(C(=O)c2ncn3c2COC(c2ccccc2)C3)CC1 (stereo not shown) [NCGC00449776-01] | 0.00 | 0.00624 | 209.84 | 0.00 | 0.00 | -78.77 | – | – | – | 5.66 | 0.00221
9 | O=C(Nc1ccccc1)C1CCN(C(=O)c2ncn3c2COC(c2ccccc2)C3)CC1 (stereo not shown) [NCGC00449901-01] | 0.00 | 0.00157 | 354.42 | 0.00 | 0.00 | -101.51 | 5.86 | 0.0014 | – | – | –
10 | O=C(NCc1ccncc1)C1CCN(C(=O)c2ncn3c2COC(c2ccc(F)cc2)C3)CC1 (stereo not shown) [NCGC00449833-01] | -20.01 | 0.0111 | 157.03 | 0.00 | 0.00 | -87.47 | 5.21 | 0.00623 | – | – | –
11 | O=C(Nc1ccc(Cl)cc1)C1CCN(C(=O)c2ncn3c2COC(c2ccccc2)C3)CC1 (stereo not shown) [NCGC00449917-01] | 0.00 | 0.00176 | 361.85 | 0.00 | 0.00 | -91.81 | 5.81 | 0.00157 | – | – | –
12 | Cc1cccc(NC(=O)C2CCN(C(=O)c3ncn4c3COC(c3ccccc3)C4)CC2)c1 (stereo not shown) [NCGC00449902-01] | 0.00 | 0.00248 | 372.05 | 0.00 | 0.00 | -97.06 | 5.66 | 0.00221 | – | – | –
13 | O=C(NCc1ccc2c(c1)OCO2)C1CCN(C(=O)c2ncn3c2COC(c2ccccc2)C3)CC1 (stereo not shown) [NCGC00449781-01] | 0.00 | 0.007 | 220.59 | 0.00 | 0.00 | -80.20 | – | – | – | 5.51 | 0.00312
14 | Cc1ccc(C2Cn3cnc(C(=O)N4CCC(C(=O)NCc5ccc(F)cc5F)CC4)c3CO2)cc1 (stereo not shown) [NCGC00449890-01] | 0.00 | – | 88.58 | 0.00 | 0.00 | -41.53 | 5.01 | 0.00988 | – | – | –
